Measurements reported in article PMC6149898, “GPCR Modulation of Thieno[2,3-b]pyridine Anti-Proliferative Agents” (Molecules : A Journal of Synthetic Chemistry and Natural …, 2017).

Tests used:
LC:A549/ATCC = test system: LC:A549/ATCC; set-up: method as in earlier work; conditions: NCI-60 panel; ref [4],[5],[6],[7]; cited from earlier work
PPYR1 = PPYR1 (Homo sapiens, UniProt P50391); assay: gpcrMAX PathHunter beta-arrestin
GALR1 = GALR1 (Homo sapiens, UniProt P47211); assay: gpcrMAX PathHunter beta-arrestin
OV:OVCAR-8 = test system: OV:OVCAR-8; set-up: method as in earlier work; conditions: NCI-60 panel; ref [4],[5],[6],[7]; cited from earlier work
P2RY6 = P2RY6 (Homo sapiens, UniProt Q15077); assay: gpcrMAX PathHunter beta-arrestin
OPRD1 = OPRD1 (Homo sapiens, UniProt P41143); assay: gpcrMAX PathHunter beta-arrestin
CO:SW-620 = test system: CO:SW-620; set-up: method as in earlier work; conditions: NCI-60 panel; ref [4],[5],[6],[7]; cited from earlier work
MC3R = MC3R (Homo sapiens, UniProt P41968); assay: gpcrMAX PathHunter beta-arrestin
ADORA3 = ADORA3 (Homo sapiens, UniProt P0DMS8); assay: gpcrMAX PathHunter beta-arrestin
FPR1 = FPR1 (Homo sapiens, UniProt P21462); assay: gpcrMAX PathHunter beta-arrestin
HTR1A = HTR1A (Homo sapiens, UniProt P08908); assay: gpcrMAX PathHunter beta-arrestin
CXCR6 = CXCR6 (Homo sapiens, UniProt O00574); assay: gpcrMAX PathHunter beta-arrestin
CXCR7 = CXCR7 (Homo sapiens, UniProt P25106); assay: gpcrMAX PathHunter beta-arrestin
MTNR1A = MTNR1A (Homo sapiens, UniProt P48039); assay: gpcrMAX PathHunter beta-arrestin
PROKR2 = PROKR2 (Homo sapiens, UniProt Q8NFJ6); assay: gpcrMAX PathHunter beta-arrestin
GPR109A = GPR109A (Homo sapiens, UniProt Q8TDS4); assay: gpcrMAX PathHunter beta-arrestin
EDNRA = EDNRA (Homo sapiens, UniProt P25101); assay: gpcrMAX PathHunter beta-arrestin
RE:CAKI-1 = test system: RE:CAKI-1; set-up: method as in earlier work; conditions: NCI-60 panel; ref [4],[5],[6],[7]; cited from earlier work
P2RY11 = P2RY11 (Homo sapiens, UniProt Q96G91); assay: gpcrMAX PathHunter beta-arrestin
LC:NCI-H322M = test system: LC:NCI-H322M; set-up: method as in earlier work; conditions: NCI-60 panel; ref [4],[5],[6],[7]; cited from earlier work
CALCR-RAMP3 = CALCR-RAMP3 (Homo sapiens, UniProt O60896+P30988); assay: gpcrMAX PathHunter beta-arrestin
SSTR1 = SSTR1 (Homo sapiens, UniProt P30872); assay: gpcrMAX PathHunter beta-arrestin
PROKR1 = PROKR1 (Homo sapiens, UniProt Q8TCW9); assay: gpcrMAX PathHunter beta-arrestin
CHRM5 = CHRM5 (Homo sapiens, UniProt P08912); assay: gpcrMAX PathHunter beta-arrestin
VIPR2 = VIPR2 (Homo sapiens, UniProt P41587); assay: gpcrMAX PathHunter beta-arrestin
FFAR1 = FFAR1 (Homo sapiens, UniProt O14842); assay: gpcrMAX PathHunter beta-arrestin
F2R = F2R (Homo sapiens, UniProt P25116); assay: gpcrMAX PathHunter beta-arrestin
CO:COLO 205 = test system: CO:COLO 205; set-up: method as in earlier work; conditions: NCI-60 panel; ref [4],[5],[6],[7]; cited from earlier work
CNS:SNB-75 = test system: CNS:SNB-75; set-up: method as in earlier work; conditions: NCI-60 panel; ref [4],[5],[6],[7]; cited from earlier work
HCRTR2 = HCRTR2 (Homo sapiens, UniProt O43614); assay: gpcrMAX PathHunter beta-arrestin
CALCR = CALCR (Homo sapiens, UniProt P30988); assay: gpcrMAX PathHunter beta-arrestin
BDKRB2 = BDKRB2 (Homo sapiens, UniProt P30411); assay: gpcrMAX PathHunter beta-arrestin
CCR4 = CCR4 (Homo sapiens, UniProt P51679); assay: gpcrMAX PathHunter beta-arrestin
CXCR5 = CXCR5 (Homo sapiens, UniProt P32302); assay: gpcrMAX PathHunter beta-arrestin
BR:T-47D = test system: BR:T-47D; set-up: method as in earlier work; conditions: NCI-60 panel; ref [4],[5],[6],[7]; cited from earlier work
CXCR2 = CXCR2 (Homo sapiens, UniProt P25025); assay: gpcrMAX PathHunter beta-arrestin
BR:BT-549 = test system: BR:BT-549; set-up: method as in earlier work; conditions: NCI-60 panel; ref [4],[5],[6],[7]; cited from earlier work
GLP1R = GLP1R (Homo sapiens, UniProt P43220); assay: gpcrMAX PathHunter beta-arrestin
OV:OVCAR-5 = test system: OV:OVCAR-5; set-up: method as in earlier work; conditions: NCI-60 panel; ref [4],[5],[6],[7]; cited from earlier work
HRH4 = HRH4 (Homo sapiens, UniProt Q9H3N8); assay: gpcrMAX PathHunter beta-arrestin

Chain of MC3R (P41968 whole entry): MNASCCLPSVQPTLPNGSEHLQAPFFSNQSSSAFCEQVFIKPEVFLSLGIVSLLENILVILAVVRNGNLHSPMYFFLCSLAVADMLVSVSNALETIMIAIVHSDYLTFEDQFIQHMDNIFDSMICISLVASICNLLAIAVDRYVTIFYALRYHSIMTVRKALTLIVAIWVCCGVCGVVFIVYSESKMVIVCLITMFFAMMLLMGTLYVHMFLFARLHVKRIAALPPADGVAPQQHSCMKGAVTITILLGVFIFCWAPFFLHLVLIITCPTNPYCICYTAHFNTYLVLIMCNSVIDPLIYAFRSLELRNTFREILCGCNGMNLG
Chain of HTR1A (P08908 whole entry): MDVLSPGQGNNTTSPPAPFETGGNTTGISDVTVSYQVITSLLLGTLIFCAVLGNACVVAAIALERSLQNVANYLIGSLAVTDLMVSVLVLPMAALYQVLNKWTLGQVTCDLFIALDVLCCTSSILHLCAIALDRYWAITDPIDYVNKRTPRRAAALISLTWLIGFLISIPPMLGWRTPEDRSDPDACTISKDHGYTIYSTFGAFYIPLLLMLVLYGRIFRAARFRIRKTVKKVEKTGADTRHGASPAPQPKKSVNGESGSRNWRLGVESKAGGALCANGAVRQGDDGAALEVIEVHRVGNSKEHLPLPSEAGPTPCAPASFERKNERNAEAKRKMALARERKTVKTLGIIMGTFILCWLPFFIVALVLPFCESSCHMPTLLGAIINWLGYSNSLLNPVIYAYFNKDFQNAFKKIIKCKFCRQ
Chain of P2RY6 (Q15077 whole entry): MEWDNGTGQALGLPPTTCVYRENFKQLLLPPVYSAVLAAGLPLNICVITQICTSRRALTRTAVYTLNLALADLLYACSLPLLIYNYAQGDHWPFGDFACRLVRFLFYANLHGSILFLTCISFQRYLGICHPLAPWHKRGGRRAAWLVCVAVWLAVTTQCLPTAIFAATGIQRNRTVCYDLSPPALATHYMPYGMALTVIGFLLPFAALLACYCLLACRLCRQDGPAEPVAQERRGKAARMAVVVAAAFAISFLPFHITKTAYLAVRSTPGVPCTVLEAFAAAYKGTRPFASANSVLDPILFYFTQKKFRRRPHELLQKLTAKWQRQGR
Chain of FFAR1 (O14842 whole entry): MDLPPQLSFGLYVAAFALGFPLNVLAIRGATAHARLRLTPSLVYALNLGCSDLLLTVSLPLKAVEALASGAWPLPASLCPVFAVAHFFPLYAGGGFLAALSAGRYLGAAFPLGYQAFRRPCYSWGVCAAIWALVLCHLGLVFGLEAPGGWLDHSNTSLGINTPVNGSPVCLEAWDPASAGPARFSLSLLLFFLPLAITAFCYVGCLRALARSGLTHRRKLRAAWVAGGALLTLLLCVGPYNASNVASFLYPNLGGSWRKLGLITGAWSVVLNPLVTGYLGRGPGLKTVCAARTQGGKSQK
Chain of GALR1 (P47211 whole entry): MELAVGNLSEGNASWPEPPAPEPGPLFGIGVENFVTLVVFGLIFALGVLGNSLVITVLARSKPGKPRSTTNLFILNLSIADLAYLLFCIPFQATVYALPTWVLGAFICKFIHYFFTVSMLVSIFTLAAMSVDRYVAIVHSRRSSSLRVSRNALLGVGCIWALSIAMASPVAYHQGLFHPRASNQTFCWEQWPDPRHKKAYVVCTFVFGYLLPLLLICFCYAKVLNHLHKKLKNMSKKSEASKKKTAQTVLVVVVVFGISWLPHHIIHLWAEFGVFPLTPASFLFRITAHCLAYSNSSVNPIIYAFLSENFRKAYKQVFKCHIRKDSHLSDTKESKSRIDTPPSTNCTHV
Chain of GPR109A (Q8TDS4 whole entry): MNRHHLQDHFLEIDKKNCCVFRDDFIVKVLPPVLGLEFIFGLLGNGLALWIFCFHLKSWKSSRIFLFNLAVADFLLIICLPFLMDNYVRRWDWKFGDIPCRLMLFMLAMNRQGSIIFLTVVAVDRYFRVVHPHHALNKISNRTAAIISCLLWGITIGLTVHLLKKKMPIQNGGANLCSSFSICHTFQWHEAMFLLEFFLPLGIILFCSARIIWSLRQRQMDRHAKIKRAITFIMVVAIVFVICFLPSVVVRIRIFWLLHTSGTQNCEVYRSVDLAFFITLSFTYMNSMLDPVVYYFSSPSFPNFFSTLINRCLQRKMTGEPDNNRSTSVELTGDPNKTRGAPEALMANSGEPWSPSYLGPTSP
Chain of CXCR6 (O00574 whole entry): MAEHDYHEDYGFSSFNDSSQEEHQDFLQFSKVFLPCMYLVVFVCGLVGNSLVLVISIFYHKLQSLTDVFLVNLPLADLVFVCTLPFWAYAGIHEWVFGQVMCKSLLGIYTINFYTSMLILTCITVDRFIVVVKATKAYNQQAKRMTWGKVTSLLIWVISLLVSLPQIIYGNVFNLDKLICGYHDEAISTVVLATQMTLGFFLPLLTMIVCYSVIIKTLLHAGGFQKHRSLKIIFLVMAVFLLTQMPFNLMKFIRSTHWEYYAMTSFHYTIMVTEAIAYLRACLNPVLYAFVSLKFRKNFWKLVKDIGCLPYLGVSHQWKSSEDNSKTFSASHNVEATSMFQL
Chain of PROKR1 (Q8TCW9 whole entry): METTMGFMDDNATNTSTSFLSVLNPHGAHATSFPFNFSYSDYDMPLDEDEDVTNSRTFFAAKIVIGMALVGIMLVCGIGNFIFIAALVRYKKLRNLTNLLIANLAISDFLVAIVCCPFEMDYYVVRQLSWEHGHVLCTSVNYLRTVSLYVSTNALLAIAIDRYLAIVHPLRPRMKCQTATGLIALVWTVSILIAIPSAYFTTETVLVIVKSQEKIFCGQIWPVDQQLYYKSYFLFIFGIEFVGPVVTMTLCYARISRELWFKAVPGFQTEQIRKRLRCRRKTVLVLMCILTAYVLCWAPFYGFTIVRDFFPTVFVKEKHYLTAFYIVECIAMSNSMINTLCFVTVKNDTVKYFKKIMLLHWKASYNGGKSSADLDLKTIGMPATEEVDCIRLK
Chain of ADORA3 (P0DMS8 whole entry): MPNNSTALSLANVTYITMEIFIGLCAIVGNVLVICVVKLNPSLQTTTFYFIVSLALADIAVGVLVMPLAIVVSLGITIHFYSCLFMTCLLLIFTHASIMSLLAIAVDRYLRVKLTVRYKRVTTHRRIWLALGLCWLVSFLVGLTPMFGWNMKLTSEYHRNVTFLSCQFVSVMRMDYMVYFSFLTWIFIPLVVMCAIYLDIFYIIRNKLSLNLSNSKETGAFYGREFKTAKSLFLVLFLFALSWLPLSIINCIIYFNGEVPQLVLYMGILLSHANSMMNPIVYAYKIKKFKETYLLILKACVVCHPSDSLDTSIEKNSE
Chain of EDNRA (P25101 21-427): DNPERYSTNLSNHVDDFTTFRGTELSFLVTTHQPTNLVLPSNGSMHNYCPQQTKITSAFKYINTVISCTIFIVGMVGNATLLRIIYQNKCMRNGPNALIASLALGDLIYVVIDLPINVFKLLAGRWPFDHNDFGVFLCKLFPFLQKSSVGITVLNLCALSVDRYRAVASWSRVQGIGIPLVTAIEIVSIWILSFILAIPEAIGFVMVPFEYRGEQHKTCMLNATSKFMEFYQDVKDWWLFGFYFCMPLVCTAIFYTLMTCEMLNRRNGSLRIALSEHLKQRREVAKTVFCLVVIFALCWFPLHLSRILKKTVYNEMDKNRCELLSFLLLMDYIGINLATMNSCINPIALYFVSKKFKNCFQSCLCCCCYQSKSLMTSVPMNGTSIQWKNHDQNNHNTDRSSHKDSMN
Chain of VIPR2 (P41587 24-438): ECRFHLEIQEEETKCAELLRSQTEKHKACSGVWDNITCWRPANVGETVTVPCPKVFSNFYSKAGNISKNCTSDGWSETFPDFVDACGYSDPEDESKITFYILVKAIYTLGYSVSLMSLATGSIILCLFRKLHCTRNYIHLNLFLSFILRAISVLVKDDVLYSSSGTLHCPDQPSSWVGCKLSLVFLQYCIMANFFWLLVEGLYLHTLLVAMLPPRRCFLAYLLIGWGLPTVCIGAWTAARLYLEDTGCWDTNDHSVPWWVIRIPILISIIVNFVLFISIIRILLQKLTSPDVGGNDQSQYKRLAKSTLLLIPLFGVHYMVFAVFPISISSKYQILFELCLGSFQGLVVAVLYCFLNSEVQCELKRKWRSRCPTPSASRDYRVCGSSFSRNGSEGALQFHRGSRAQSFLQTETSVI
Chain of BDKRB2 (P30411 whole entry): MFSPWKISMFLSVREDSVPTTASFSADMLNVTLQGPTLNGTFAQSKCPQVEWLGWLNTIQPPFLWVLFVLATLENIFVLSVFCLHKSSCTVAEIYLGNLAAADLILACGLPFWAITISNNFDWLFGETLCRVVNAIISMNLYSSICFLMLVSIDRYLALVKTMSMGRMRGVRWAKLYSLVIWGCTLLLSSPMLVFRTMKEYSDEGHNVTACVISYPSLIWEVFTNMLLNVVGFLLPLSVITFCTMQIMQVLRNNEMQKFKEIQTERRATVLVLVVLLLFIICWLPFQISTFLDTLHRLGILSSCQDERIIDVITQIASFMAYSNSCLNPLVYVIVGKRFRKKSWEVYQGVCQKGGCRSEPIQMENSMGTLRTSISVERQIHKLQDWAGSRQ
Chain of CCR4 (P51679 whole entry): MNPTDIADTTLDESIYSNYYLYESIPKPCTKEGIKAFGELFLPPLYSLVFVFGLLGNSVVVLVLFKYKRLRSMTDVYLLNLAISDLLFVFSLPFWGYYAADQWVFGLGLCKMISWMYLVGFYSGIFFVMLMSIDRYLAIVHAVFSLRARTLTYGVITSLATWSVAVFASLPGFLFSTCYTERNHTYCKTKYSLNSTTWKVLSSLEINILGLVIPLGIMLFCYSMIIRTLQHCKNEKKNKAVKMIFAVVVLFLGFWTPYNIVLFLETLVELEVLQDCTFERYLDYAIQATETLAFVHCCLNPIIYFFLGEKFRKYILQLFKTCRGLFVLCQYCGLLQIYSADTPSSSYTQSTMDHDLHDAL

Cc1c(Cl)cccc1NC(=O)c1sc2nc3c(cc2c1N)C(=O)CCC3 [Compound 1]
GI50 (LC:A549/ATCC): 63.1 nM
inhibition at 10 µM (PPYR1): -18%
inhibition at 10 µM (GALR1): 12%
GI50 (OV:OVCAR-8): 279 nM
inhibition at 10 µM (P2RY6): -17%
inhibition at 10 µM (OPRD1): -26%
GI50 (CO:SW-620): 48.6 nM
inhibition at 10 µM (MC3R): 2%
inhibition at 10 µM (ADORA3): 25%
inhibition at 10 µM (FPR1): 16%
inhibition at 10 µM (HTR1A): 3%
inhibition at 10 µM (CXCR6): 5%
inhibition at 10 µM (CXCR7): -15%
inhibition at 10 µM (MTNR1A): -15%
inhibition at 10 µM (PROKR2): -3%
inhibition at 10 µM (GPR109A): -13%
inhibition at 10 µM (EDNRA): -18%
GI50 (RE:CAKI-1): 46.1 nM
inhibition at 10 µM (P2RY11): -6%
GI50 (LC:NCI-H322M): 306 nM
inhibition at 10 µM (CALCR-RAMP3): 17%
inhibition at 10 µM (SSTR1): -62%
inhibition at 10 µM (PROKR1): 6%
inhibition at 10 µM (CHRM5): 8%
inhibition at 10 µM (VIPR2): 12%
inhibition at 10 µM (FFAR1): -59%
inhibition at 10 µM (F2R): 5%
GI50 (CO:COLO 205): 51.8 nM
GI50 (CNS:SNB-75): 40.3 nM
inhibition at 10 µM (HCRTR2): 8%
inhibition at 10 µM (CALCR): -18%
inhibition at 10 µM (BDKRB2): 1%
inhibition at 10 µM (CCR4): 26%
inhibition at 10 µM (CXCR5): 0%
GI50 (BR:T-47D): 55 nM
inhibition at 10 µM (CXCR2): 33%
GI50 (BR:BT-549): 321 nM
inhibition at 10 µM (GLP1R): -1%
GI50 (OV:OVCAR-5): 308 nM
inhibition at 10 µM (HRH4): 32%
